Measurements from PubChem BioAssay AID248 (DTP/NCI, 2004).
Toxic doses and inconclusive results are not listed. Rule as the data show it: active = T/C of 150% or more; inactive = T/C below 125%.

Tested on: L1210 leukemia ip in BDF1 mice, survival T/C
Assay: NCI In Vivo Anticancer Drug Screen. Data for tumor model L1210 Leukemia (intraperitoneal) in B6D2F1 (BDF1) mice
Details: endpoint: mean survival time, higher = longer survival
Method in brief: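 Mice bearing the transplanted tumor received compound or vehicle. Survival of the treated group was divided by that of the vehicle-treated control group to give the ratio.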

[1] = dose: 100.0 mg/kg/injection, schedule: Q01DX001 (ip), vehicle: saline
[2] = dose: 400.0 mg/kg/injection, schedule: Q01DX001 (ip), vehicle: saline
[3] = dose: 50.0 mg/kg/injection, schedule: Q01DX009 (ip), vehicle: saline with Tween-80
[4] = dose: 100.0 mg/kg/injection, schedule: Q01DX009 (ip), vehicle: saline with Tween-80
[5] = dose: 200.0 mg/kg/injection, schedule: Q01DX001 (ip), vehicle: saline

Measured: T/C

O=[N+]([O-])c1ccccc1N=Nc1c(O)[nH]c2cccc(C(F)(F)F)c12
inactive: dose: 100.0 mg/kg/injection, schedule: Q01DX001 (ip), vehicle: acetone 97 % of control | [1] 103 % of control | dose: 200.0 mg/kg/injection, schedule: Q01DX001 (ip), vehicle: acetone 97 % of control | dose: 400.0 mg/kg/injection, schedule: Q01DX001 (ip), vehicle: acetone 97 % of control | [2] 87 % of control

CCNC(=S)Nc1ccc(Cl)cc1
inactive: dose: 25.0 mg/kg/injection, schedule: Q01DX009 (ip), vehicle: saline with Tween-80 93 % of control | [3] 95 % of control | [4] 97 % of control | dose: 100.0 mg/kg/injection, schedule: Q04DX003 (ip), vehicle: saline with Tween-80 104 % of control

CN(C)CCC(O)Cc1ccccc1 (stereo not drawn)
inactive: dose: 100.0 mg/kg/injection, schedule: Q01DX009 (ip), vehicle: acetone 95 % of control | dose: 200.0 mg/kg/injection, schedule: Q01DX009 (ip), vehicle: acetone 101 % of control

COc1ccc(C(=O)C2=CC(=O)C(=O)C2)cc1OC
inactive: [1] 98 % of control | [5] 98 % of control | [2] 94 % of control

c1ccc2c(c1)ccc1cc3cnccc3cc12
inactive: [1] 95 % of control | [5] 103 % of control | [2] 101 % of control

CC1=CC(=O)C=CC1(C)C(Cl)(Cl)Cl (stereo not drawn)
inactive: dose: 100.0 mg/kg/injection, schedule: Q01DX009 (ip), vehicle: Klucel (hydroxypropylcellulose) (HPC) 95 % of control | dose: 100.0 mg/kg/injection, schedule: Q04DX003 (ip), vehicle: other 100 % of control | dose: 200.0 mg/kg/injection, schedule: Q01DX009 (ip), vehicle: Klucel (hydroxypropylcellulose) (HPC) 91 % of control | dose: 200.0 mg/kg/injection, schedule: Q04DX003 (ip), vehicle: other 94 % of control | dose: 400.0 mg/kg/injection, schedule: Q04DX003 (ip), vehicle: other 101 % of control

COC1OC(CI)C(OC(C)=O)C(OC(C)=O)C1OS(C)(=O)=O (stereo not drawn)
inactive: dose: 100.0 mg/kg/injection, schedule: Q04DX002 (ip), vehicle: Klucel (hydroxypropylcellulose) (HPC) 97 % of control | dose: 200.0 mg/kg/injection, schedule: Q04DX002 (ip), vehicle: Klucel (hydroxypropylcellulose) (HPC) 106 % of control | dose: 400.0 mg/kg/injection, schedule: Q04DX002 (ip), vehicle: Klucel (hydroxypropylcellulose) (HPC) 91 % of control

O=C1c2ccccc2Cc2ccccc21
inactive: [1] 97 % of control | dose: 100.0 mg/kg/injection, schedule: Q04DX002 (ip), vehicle: gum acacia 103 % of control | [5] 95 % of control | dose: 200.0 mg/kg/injection, schedule: Q04DX002 (ip), vehicle: gum acacia 100 % of control | [2] 106 % of control | dose: 400.0 mg/kg/injection, schedule: Q04DX002 (ip), vehicle: gum acacia 106 % of control

CCOP(=O)(OCC)Oc1cc(C)c(N(C)C)c(C)c1
inactive: dose: 75.0 mg/kg/injection, schedule: Q01DX001 (ip), vehicle: saline 101 % of control | dose: 150.0 mg/kg/injection, schedule: Q01DX001 (ip), vehicle: saline 90 % of control

C=C1CC2(OC1=O)C(=O)N(C)c1ccccc12 (stereo not drawn)
inactive: dose: 25.0 mg/kg/injection, schedule: Q04DX002 (ip), vehicle: gum acacia 101 % of control | dose: 50.0 mg/kg/injection, schedule: Q04DX002 (ip), vehicle: gum acacia 97 % of control

COC1CC(OS(=O)(=O)c2ccc(C)cc2)C(OS(=O)(=O)c2ccc(C)cc2)C(C)O1 (stereo not drawn)
inactive: [1] 100 % of control | [5] 98 % of control | [2] 98 % of control

Cc1ccc2ccccc2c1OC(C)C(=O)O (stereo not drawn)
inactive: [3] 108 % of control | [4] 95 % of control | dose: 100.0 mg/kg/injection, schedule: Q04DX003 (ip), vehicle: alcohol 95 % of control | dose: 200.0 mg/kg/injection, schedule: Q01DX009 (ip), vehicle: saline with Tween-80 113 % of control | dose: 200.0 mg/kg/injection, schedule: Q04DX003 (ip), vehicle: alcohol 93 % of control
